The NIST ThermoML archive (doi:10.1016/j.jct.2019.01.022)
Numbers after ± are expanded uncertainties.

Columns and labels:
[1] = Molar enthalpy of transition or fusion; details: DSC
[2] = for mass density: 293 K, 101.33 kPa, Pycnometric method; for vapor or sublimation pressure: Transpiration method; for Normal melting temperature: DTA

CC(C)NC(=O)Nc1ccccc1 [1-isopropyl-3-phenylurea]
Crystal
Details | Molar enthalpy of transition or fusion [kcal/mol] | Normal melting temperature [°C] | mass density [kg/m3]
[1] | 5.35 ± 0.55 | – | –
[2] | – | 156.2 ± 2 | 1050 ± 20

[2], Crystal
Details | vapor or sublimation pressure [kPa]
393.3 K | 0.00201 ± 0.00015
396.2 K | 0.00261 ± 0.00017
400.3 K | 0.00373 ± 0.00025
403.2 K | 0.00478 ± 0.00031
406.5 K | 0.00631 ± 0.00044
409.6 K | 0.00835 ± 0.00056
411.7 K | 0.00986 ± 0.00066
413.7 K | 0.01159 ± 0.00077
416.5 K | 0.01436 ± 0.00094
419.6 K | 0.01814 ± 0.0012
421.5 K | 0.02123 ± 0.0014
423.8 K | 0.02493 ± 0.0016

CC(C)(C)NC(=O)Nc1ccccc1 [1-tert-butyl-3-phenylurea]
Details | Molar enthalpy of transition or fusion, Crystal 1 [kcal/mol] | Molar enthalpy of transition or fusion, Crystal 2 [kcal/mol] | Normal melting temperature, Crystal 1 [°C] | Triple point temperature, Crystal 2, DSC [K] | mass density, Crystal 2 [kg/m3]
[1] | 5.9 ± 0.598 | 1.86 ± 0.191 | – | – | –
[2] | – | – | 168 ± 2 | 432 ± 2.1 | 1062 ± 20

[2], Crystal 2
Details | vapor or sublimation pressure [kPa]
385.9 K | 0.00162 ± 0.00012
390 K | 0.00233 ± 0.00015
392.4 K | 0.00294 ± 0.0002
396.3 K | 0.00405 ± 0.00027
400.2 K | 0.00579 ± 0.00041
403.3 K | 0.00737 ± 0.00051
406.2 K | 0.00973 ± 0.00067
410.5 K | 0.01397 ± 0.00092
416.2 K | 0.02115 ± 0.0014
420.6 K | 0.03129 ± 0.002
424 K | 0.03902 ± 0.0025
426.6 K | 0.0483 ± 0.0031
428.8 K | 0.05831 ± 0.0037
430.5 K | 0.066 ± 0.0042

NC(=O)Nc1ccccc1 [N-phenylurea]
[2], Crystal
Details | vapor or sublimation pressure [kPa]
386 K | 0.00061 ± 5e-05
391.7 K | 0.00103 ± 7e-05
396.2 K | 0.00154 ± 0.0001
399.5 K | 0.00209 ± 0.00015
402.4 K | 0.00275 ± 0.00018
406.2 K | 0.00394 ± 0.00025
408.3 K | 0.0047 ± 0.0003
411.5 K | 0.00607 ± 0.00043
413.6 K | 0.00714 ± 0.00048
